Experimental data as given in ChEMBL document CHEMBL1201862, “PubChem BioAssay data set” (2004).
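Five compound concentrations were applied to cells in 96-well plates for 48 hours; endpoints were derived by simple linear interpolation of the resulting dose-response curve. Abbreviation: GI50, concentration required for 50% inhibition of growth.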 Calls of active or inactive are those of the source. Rule as the data show it: active = GI50 up to about 1.1 µM and inactive = higher.

What was measured:
Test in all cases: inhibition of tumour cell growth, NCI panel, 48 h
DMS-273 = system: DMS-273
M19-MEL = system: M19-MEL
XF498 = system: XF498
DLD-1 = system: DLD-1
DMS-114 = system: DMS-114
LXFL 529 = system: LXFL 529
RXF 631 = system: RXF 631
HOP-18 = system: HOP-18
KM-20L2 = system: KM-20L2

Measured: GI50

COc1ccc(OC)c(/C=N/N=C(\N)NO)c1
inactive: DMS-273 6.31 µM | M19-MEL 61 µM | XF498 18 µM | DLD-1 17.2 µM | DMS-114 14.9 µM | LXFL 529 4.57 µM | RXF 631 37.6 µM

c1ccc(C(c2ccccc2)c2ccncc2)cc1
inactive: DMS-273 > 100 µM | M19-MEL > 100 µM | XF498 > 100 µM | HOP-18 > 100 µM | DLD-1 > 100 µM | DMS-114 > 100 µM | KM-20L2 > 100 µM | RXF 631 > 100 µM

OC1(C(Sc2ccccc2)Sc2ccccc2)CCCCCC1
inactive: DMS-273 27.8 µM | M19-MEL 35.2 µM | XF498 13.6 µM | DLD-1 38.4 µM | DMS-114 27.1 µM | KM-20L2 2.81 µM

Cc1cc(C)nc(NS(=O)(=O)c2ccc(Nc3c4ccccc4nc4c(C(=O)Nc5ccc(S(N)(=O)=O)cc5)cccc34)cc2)n1
inactive: DMS-273 92.5 µM | M19-MEL 94.2 µM | XF498 > 100 µM | HOP-18 51.6 µM | DLD-1 71.8 µM | DMS-114 > 100 µM | LXFL 529 88.9 µM | KM-20L2 > 100 µM

Cc1ccccc1NC(=O)C(=O)C(C(=O)c1ccccc1F)C1OC(=O)c2ccccc21 (stereo unspecified)
inactive: DMS-273 23.3 µM | HOP-18 23.4 µM | DLD-1 22.2 µM | DMS-114 10.2 µM | LXFL 529 13.4 µM | KM-20L2 38.3 µM | RXF 631 26.9 µM

CC(C)(C)c1ccc(OCCOCCOc2ccc(C(C)(C)C)cc2S(=O)(=O)Nc2ccc([N+](=O)[O-])cc2)c(S(=O)(=O)Nc2ccc([N+](=O)[O-])cc2)c1
inactive: DMS-273 7.94 µM | M19-MEL 6.11 µM | HOP-18 9.75 µM | DLD-1 38.6 µM | DMS-114 9.42 µM | RXF 631 6.82 µM

CC(=O)OC1CCC2C(=CCC3C2(C)C(=O)CC2(C)C(C4(C)OC(C(C)C)=CC4=O)C(O)CC32C)C1(C)C (stereo unspecified)
inactive: DMS-273 23.3 µM | M19-MEL 12.6 µM | XF498 31.3 µM | DLD-1 32.5 µM | DMS-114 25.8 µM | LXFL 529 31.3 µM | KM-20L2 17.9 µM

CC(O)C(NC(=O)c1ccccc1)C(=O)N(Cc1ccccc1)Cc1ccccc1 (stereo unspecified)
inactive: DMS-273 > 100 µM | M19-MEL > 100 µM | XF498 > 100 µM | HOP-18 37 µM | DLD-1 > 100 µM | DMS-114 > 100 µM | LXFL 529 > 100 µM | KM-20L2 > 100 µM | RXF 631 > 100 µM

O=C(Nc1ccccc1[N+](=O)[O-])C(=O)C(C(=O)c1ccccc1-c1ccccc1)C1OC(=O)c2ccccc21 (stereo unspecified)
inactive: DMS-273 14.3 µM | M19-MEL 12.6 µM | HOP-18 14.1 µM | DLD-1 21.4 µM | DMS-114 13.6 µM | LXFL 529 11 µM | KM-20L2 18.2 µM | RXF 631 13.4 µM

Cc1ccc(Sc2ccccc2N)cc1
inactive: DMS-273 30.8 µM | M19-MEL 41.6 µM | HOP-18 77.8 µM | DMS-114 43.4 µM | LXFL 529 16.8 µM | KM-20L2 39.9 µM | RXF 631 29 µM

Oc1cc2c(cc1O)-c1[nH]ncc1CC2
inactive: DMS-273 42.1 µM | M19-MEL 40.7 µM | XF498 27.6 µM | HOP-18 6.15 µM | DLD-1 52.5 µM | DMS-114 16.5 µM | LXFL 529 31.3 µM | KM-20L2 38.5 µM

CCOC(=O)NC/C=C/CO
inactive: DMS-273 > 100 µM | M19-MEL > 100 µM | HOP-18 > 100 µM | DLD-1 > 100 µM | DMS-114 > 100 µM | LXFL 529 > 100 µM | KM-20L2 > 100 µM | RXF 631 > 100 µM

O=C(Nc1nc2ncn(CCI)c2c(=O)[nH]1)c1ccccc1
inactive: DMS-273 > 100 µM | M19-MEL > 100 µM | XF498 20.4 µM | HOP-18 > 56.1 µM | LXFL 529 > 100 µM | KM-20L2 > 100 µM | RXF 631 > 100 µM
